Structures can show the parent of a compound that is named as a salt.

This data set is described as follows: in vitro. The note with it: human, hek293t cells.
What is called viability is a read-out of living cells in per cent, often relative to untreated cells. As to `C=CC(=O)N1CCC(C(=O)N[C@H](C)c2ccc3c(c2)CCCC3)CC1` [3-P12, 1-(prop-2-enoyl)-N-[(1R)-1-(5,6,7,8-tetrahydronaphthalen-2-yl)ethyl]piperidine-4-carboxamide], the viability at 48 h, 25 µM was determined as 58%.
The same measure for `O=C(CCl)NCC(F)(F)c1cc(-c2ccccc2)n[nH]1` [7-P20, 2-chloro-N-[2,2-difluoro-2-(3-phenyl-1H-pyrazol-5-yl)ethyl]acetamide]: 0.938%; for `CC(NC(=O)CCl)c1ccc2ncsc2c1` (stereo not shown) [6-A18, N-[1-(1,3-benzothiazol-6-yl)ethyl]-2-chloroacetamide]: 2.3%; for `C=CC(=O)NCc1nnc2n1CCCCC2` [3-N07, N-({5H,6H,7H,8H,9H-[1,2,4]triazolo[4,3-a]azepin-3-yl}methyl)prop-2-enamide]: 43.2%.
As to `O=C(CCl)N(Cc1cc(F)ccc1F)CC1CCOCC1` [5-P03, 2-chloro-N-[(2,5-difluorophenyl)methyl]-N-[(oxan-4-yl)methyl]acetamide], the viability at 48 h, 25 µM turned out to be 0.456%.
Consider `C=CCNC(=O)C(C#N)=Cc1cccc2ccccc12` [9-L10, 2-cyano-3-(naphthalen-1-yl)-N-(prop-2-en-1-yl)prop-2-enamide], for which the viability at 48 h, 25 µM worked out at 96.5%.
Take `C=CC(=O)Nc1cc(OC)cc(S(C)(=O)=O)c1` [1-H16, N-(3-methanesulfonyl-5-methoxyphenyl)prop-2-enamide]: the viability at 48 h, 25 µM worked out at 84.1%.
Take `O=C(CCl)NC(Cn1cncn1)c1ccccc1` (stereo not shown) [7-N03, 2-chloro-N-[1-phenyl-2-(1H-1,2,4-triazol-1-yl)ethyl]acetamide]: the viability at 48 h, 25 µM was 0.644%.
In the case of `C=CC(=O)Nc1cnc2cc(C)nn2c1` [2-M13, N-{2-methylpyrazolo[1,5-a]pyrimidin-6-yl}prop-2-enamide] it was 136%.
In the case of `C=CC(=O)N(C)Cc1nc2c(cnn2C)c(=O)[nH]1` [3-L08, N-methyl-N-({1-methyl-4-oxo-1H,4H,5H-pyrazolo[3,4-d]pyrimidin-6-yl}methyl)prop-2-enamide] it was 70.4%; in that of `CN1C(=O)C(=C(C#N)C(=O)NCc2ccc(Cl)cc2)c2ccccc21` [8-K17, N-[(4-chlorophenyl)methyl]-2-cyano-2-(1-methyl-2-oxo-2,3-dihydro-1H-indol-3-ylidene)acetamide], 78.3%; in that of `COCC(C)NC(=O)C(C#N)=Cc1cc2cc(F)ccc2o1` (stereo not shown) [9-F04, 2-cyano-3-(5-fluoro-1-benzofuran-2-yl)-N-(1-methoxypropan-2-yl)prop-2-enamide], 99.8%.
The same measure for `CC(C)NC(=O)C(C#N)=Cc1ccc(Cl)cc1` [9-C09, 3-(4-chlorophenyl)-2-cyano-N-(propan-2-yl)prop-2-enamide]: 86.7%; for `CCN(CC)S(=O)(=O)c1cc(NC(=O)C(C)Cl)ccc1C` (stereo not shown) [4-P09, 2-chloro-N-[3-(diethylsulfamoyl)-4-methylphenyl]propanamide]: 69.6%.
As for `CSc1ccc(C=C(C#N)C(=O)Nc2c(C)cc(C)cc2C)cc1` [8-G15, 2-cyano-3-[4-(methylsulfanyl)phenyl]-N-(2,4,6-trimethylphenyl)prop-2-enamide], the viability at 48 h, 25 µM stood at 111%.
In the case of `C=CC(=O)N(C)C1CCN(c2cnccn2)CC1` [1-B12, N-methyl-N-[1-(pyrazin-2-yl)piperidin-4-yl]prop-2-enamide] it was 70.1%; in that of `Cc1nc2n(n1)CCN(C(=O)C(C)Cl)C2` (stereo not shown) [5-A04, 2-chloro-1-{2-methyl-5H,6H,7H,8H-[1,2,4]triazolo[1,5-a]pyrazin-7-yl}propan-1-one], 107%.
For `O=C(CCl)NC1CCN(C(=O)CCc2ccccc2)CC1` [6-N08, 2-chloro-N-[1-(3-phenylpropanoyl)piperidin-4-yl]acetamide], the viability at 48 h, 25 µM was determined as 1.6%.
Take `Cc1cc(C)cc(-c2cc(NC(=O)CCl)n(-c3ccccc3)n2)c1` [4-K04, 2-chloro-N-[3-(3,5-dimethylphenyl)-1-phenyl-1H-pyrazol-5-yl]acetamide]: the viability at 48 h, 25 µM is -0.323%.
With `Cc1cc(C=C2CCN(C(=O)C(C)Cl)CC2)no1` (stereo not shown) [6-N03, 2-chloro-1-{4-[(5-methyl-1,2-oxazol-3-yl)methylidene]piperidin-1-yl}propan-1-one], the viability at 48 h, 25 µM is 104%.
`O=C(CCl)NCC1CN(Cc2ccccc2)CC12CCC2` (stereo not shown) [7-H03, N-({6-benzyl-6-azaspiro[3.4]octan-8-yl}methyl)-2-chloroacetamide hydrochloride]: the viability at 48 h, 25 µM stood at 0.629%.
Turning to `C=CC(=O)NC(C)Cn1nc(C)cc1C` (stereo not shown) [1-F10, N-[1-(3,5-dimethyl-1H-pyrazol-1-yl)propan-2-yl]prop-2-enamide], the viability at 48 h, 25 µM was 55.7%.
In the case of `O=C(CCl)Nc1ccc(N=Nc2ccccc2)cc1` [4-C11, 2-chloro-N-[4-(2-phenyldiazen-1-yl)phenyl]acetamide] it was 0.339%; in that of `C=CC(=O)N1CCC(C(=O)Nc2ccccc2NS(C)(=O)=O)CC1` [3-C06, N-(2-methanesulfonamidophenyl)-1-(prop-2-enoyl)piperidine-4-carboxamide], 82.7%.
As for `Cc1noc(C)c1CN(C(=O)CCl)C1CC1` [7-B05, 2-chloro-N-cyclopropyl-N-[(3,5-dimethyl-1,2-oxazol-4-yl)methyl]acetamide], the viability at 48 h, 25 µM was 0.0855%.
For the compound `O=C(CCl)NC1CCN(C(=O)COc2ccccc2)C1` (stereo not shown) [7-L03, 2-chloro-N-[1-(2-phenoxyacetyl)pyrrolidin-3-yl]acetamide], the viability at 48 h, 25 µM turned out to be 0.757%.
On to `Cc1c(Cl)cccc1NC(=O)C(C)Cl` (stereo not shown) [6-I10, 2-chloro-N-(3-chloro-2-methylphenyl)propanamide], for which the viability at 48 h, 25 µM came to 110%.
In the case of `O=C(CCl)N(Cc1ccccc1)Cc1ccco1` [5-F22, N-benzyl-2-chloro-N-[(furan-2-yl)methyl]acetamide] it was 0.693%.
As to `CC(C)(C)C1CCc2c(sc(NC(=O)CCl)c2C#N)C1` (stereo not shown) [5-E17, N-(6-tert-butyl-3-cyano-4,5,6,7-tetrahydro-1-benzothiophen-2-yl)-2-chloroacetamide], the viability at 48 h, 25 µM was 0.117%.
On to `C=CC(=O)N1CCC(C(=O)N2CCOC(c3cccc(F)c3)C2)CC1` (stereo not shown) [2-L14, 1-{4-[2-(3-fluorophenyl)morpholine-4-carbonyl]piperidin-1-yl}prop-2-en-1-one], for which the viability at 48 h, 25 µM was 102%.
For the compound `CC1CCCC(NC(=O)C(C#N)=Cc2ccccc2)C1C` (stereo not shown) [8-C19, 2-cyano-N-(2,3-dimethylcyclohexyl)-3-phenylprop-2-enamide], the viability at 48 h, 25 µM was found to be 27.3%.
As to `CCC1SC(=C(C#N)C(=O)NC)N(c2ccc(Cl)cc2)C1=O` (stereo not shown) [8-L15, 2-[3-(4-chlorophenyl)-5-ethyl-4-oxo-1,3-thiazolidin-2-ylidene]-2-cyano-N-methylacetamide], the viability at 48 h, 25 µM was 132%.
In the case of `C#Cc1cccc(N(Cc2cc3n(n2)CCCO3)C(=O)CCl)c1` [5-O10, 2-chloro-N-(3-ethynylphenyl)-N-({5H,6H,7H-pyrazolo[3,2-b][1,3]oxazin-2-yl}methyl)acetamide] it was 0.703%; in that of `C=CC(=O)NC1CCCCC12CCCC2` (stereo not shown) [1-F16, N-{spiro[4.5]decan-6-yl}prop-2-enamide], 77.6%.
Take `CC(Cl)C(=O)NCCc1nc2cc(F)ccc2s1` (stereo not shown) [7-P11, 2-chloro-N-[2-(5-fluoro-1,3-benzothiazol-2-yl)ethyl]propanamide]: the viability at 48 h, 25 µM turned out to be 89.1%.
The same measure for `C=CC(=O)Nc1nc(Cc2ccccc2)c(C)s1` [1-B16, N-(4-benzyl-5-methyl-1,3-thiazol-2-yl)prop-2-enamide]: 73.2%; for `C=CC(=O)NC1CCC(OCc2cc(C)no2)CC1` (stereo not shown) [1-M08, N-{4-[(3-methyl-1,2-oxazol-5-yl)methoxy]cyclohexyl}prop-2-enamide]: 86.5%.
Regarding `CN(C1CCCCC1)S(=O)(=O)c1ccc(NC(=O)CCl)cc1` [5-E03, 2-chloro-N-{4-[cyclohexyl(methyl)sulfamoyl]phenyl}acetamide], the viability at 48 h, 25 µM was -0.149%.
Consider `CC(=O)NCCc1cc(C(=O)CCl)ccc1F` [10-O05, N-{2-[5-(2-chloroacetyl)-2-fluorophenyl]ethyl}acetamide], for which the viability at 48 h, 25 µM was 37.8%.
With `Cc1ccc(C=C(C#N)C(=O)NCCc2ccccc2)o1` [8-H12, 2-cyano-3-(5-methylfuran-2-yl)-N-(2-phenylethyl)prop-2-enamide], the viability at 48 h, 25 µM was found to be 118%.
In the case of `C=CC(=O)NC1(c2ncon2)CCOCC1` [3-K22, N-[4-(1,2,4-oxadiazol-3-yl)oxan-4-yl]prop-2-enamide] it was 66.9%.
Turning to `C=CC(=O)NCc1ccc(C(=O)N2CCN(C(C)=O)CC2)cc1` [3-G17, N-{[4-(4-acetylpiperazine-1-carbonyl)phenyl]methyl}prop-2-enamide], the viability at 48 h, 25 µM was 32.9%.
In the case of `Cc1nc(C)n(C2CCCN(C(=O)C(C)Cl)C2)n1` (stereo not shown) [7-P13, 2-chloro-1-[3-(3,5-dimethyl-1H-1,2,4-triazol-1-yl)piperidin-1-yl]propan-1-one], the viability at 48 h, 25 µM is 92.3%.
In the case of `O=C(CCl)NCc1ccccc1CN1CCOCC1` [5-L06, 2-chloro-N-({2-[(morpholin-4-yl)methyl]phenyl}methyl)acetamide hydrochloride], the viability at 48 h, 25 µM came to 1.46%.
As for `N#CC(=Cc1cccc(F)c1F)C(=O)NC(N)=O` [8-H04, {2-cyano-2-[(2,3-difluorophenyl)methylidene]acetyl}urea], the viability at 48 h, 25 µM was determined as 89.9%.
The same measure for `Cc1ccc(C=C(C#N)C(=O)Nc2ccccc2C)cc1` [8-G16, 2-cyano-N-(2-methylphenyl)-3-(4-methylphenyl)prop-2-enamide]: 118%; for `C=CC(=O)NCc1ccccc1N1CCCC(C(N)=O)C1` (stereo not shown) [3-L21, 1-{2-[(prop-2-enamido)methyl]phenyl}piperidine-3-carboxamide]: 68.9%.
In the case of `CN(C)c1nc(N2CCOCC2)ncc1NC(=O)CCl` [5-M22, 2-chloro-N-[4-(dimethylamino)-2-(morpholin-4-yl)pyrimidin-5-yl]acetamide] it was 38.9%.
In the case of `COc1ccc(NC(=O)CCl)c([N+](=O)[O-])c1` [4-I21, 2-chloro-N-(4-methoxy-2-nitrophenyl)acetamide] it was 35.6%.

(Values after PMC11995724, “Antibiotic target discovery by integrated phenotypic and activity-based profiling of electrophilic fragments” (Cell chemical biology, 2025).)
